The results in this text go back to ChEMBL document CHEMBL4725332, “The design of a novel near-infrared fluorescent HDAC inhibitor and image of tumor cells” (Bioorg Med Chem, 2020).

Active and inactive are the calls of the source. The rule behind the calls is not given here.

The target of data set [1] is T1, Protein deacetylase HDAC6 (Homo sapiens, UniProt Q9UBN7).
T1 sequence (Q9UBN7 whole entry): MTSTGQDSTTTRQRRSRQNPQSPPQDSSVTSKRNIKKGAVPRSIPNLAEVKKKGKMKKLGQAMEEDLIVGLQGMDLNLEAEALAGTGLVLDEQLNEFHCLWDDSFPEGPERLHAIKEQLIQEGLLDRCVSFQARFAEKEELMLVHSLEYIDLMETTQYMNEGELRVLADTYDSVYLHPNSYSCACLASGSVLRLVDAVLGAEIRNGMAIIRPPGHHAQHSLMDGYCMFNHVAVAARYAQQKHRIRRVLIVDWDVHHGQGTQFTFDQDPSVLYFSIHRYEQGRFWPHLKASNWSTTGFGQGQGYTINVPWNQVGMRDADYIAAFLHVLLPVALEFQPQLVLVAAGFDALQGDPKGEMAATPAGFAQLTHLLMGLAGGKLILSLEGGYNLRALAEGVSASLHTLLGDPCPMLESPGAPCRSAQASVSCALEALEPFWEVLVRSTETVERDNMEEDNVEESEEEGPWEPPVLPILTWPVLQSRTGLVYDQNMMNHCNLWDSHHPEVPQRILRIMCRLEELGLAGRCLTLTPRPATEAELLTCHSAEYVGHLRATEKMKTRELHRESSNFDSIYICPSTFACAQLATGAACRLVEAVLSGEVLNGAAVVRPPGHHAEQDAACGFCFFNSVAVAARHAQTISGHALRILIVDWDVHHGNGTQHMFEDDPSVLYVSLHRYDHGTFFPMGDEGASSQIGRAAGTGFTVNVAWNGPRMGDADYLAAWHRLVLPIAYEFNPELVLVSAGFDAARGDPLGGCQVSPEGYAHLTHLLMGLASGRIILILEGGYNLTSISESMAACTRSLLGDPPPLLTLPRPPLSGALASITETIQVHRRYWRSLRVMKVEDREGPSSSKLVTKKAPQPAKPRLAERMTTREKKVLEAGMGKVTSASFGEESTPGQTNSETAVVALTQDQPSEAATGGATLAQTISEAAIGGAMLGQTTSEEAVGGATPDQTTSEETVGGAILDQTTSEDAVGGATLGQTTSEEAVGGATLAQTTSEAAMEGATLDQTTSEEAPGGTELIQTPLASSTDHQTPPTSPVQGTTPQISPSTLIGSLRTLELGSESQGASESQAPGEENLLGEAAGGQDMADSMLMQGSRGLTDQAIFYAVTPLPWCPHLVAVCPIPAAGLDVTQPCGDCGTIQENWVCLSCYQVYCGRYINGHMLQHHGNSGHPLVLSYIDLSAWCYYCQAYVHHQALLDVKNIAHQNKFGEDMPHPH
In words: Inhibition of human recombinant HDAC6 expressed in baculovirus infected High5 insect cells using Boc-Lys(eacety1)-AMC as substrate incubated for 3 hrs measured after 30 mins by microplate reader based spectrophotometric analysis. Also on record: species or system BTI-TN-5B1-4.

Data set [2] in a line: Emission property of the compound assessed as maximum wavelength at 5 uM under pH condition 7.4 at excitation wavelength by fluorescence spectrophotometric method. Type of data set: physicochemical.
For another data set, the system named is HeLa. Description: Antiproliferation activity against human Hela cells assessed as reduction in cell viability incubated for 72 hrs by MTT assay. Format: functional, cell-based.
A short description of data set [3]: Drug uptake in human MDA-MB-231 cells assessed as increased fluorescence intensity at 5 uM for 1 to 24 hrs by fluorescence imaging analysis. Format: ADME, cell-based. The note with it: mda-mb-231, 25 µM, time 1-24 hrs.
Data set [4] is described as follows: Emission property of the compound assessed as fluorescence at 5 uM under acidic condition at pH 4 by fluorescence spectrophotometric method. Type of data set: physicochemical. As to conditions: pH 4, 5 µM.
A further data set concerns MDA-MB-231. In words: Antiproliferation activity against human MDA-MB-231 cells assessed as reduction in cell viability incubated for 72 hrs by MTT assay. Type of data set: functional, cell-based.
The nature of data set [5]: Absorption property of the compound assessed as maximum absorption wavelength at 5 uM under pH condition 7.4 by fluorescence spectrophotometric method. Type of data set: physicochemical.
Data set [6] is described as follows: Drug uptake in human Hela cells assessed as increased fluorescence intensity at 5 to 25 uM for 1 to 24 hrs by fluorescence imaging analysis. Format: ADME, cell-based. As to conditions: dose 1-25 µM, time 1-24 hrs.
A further data set concerns the target Histone deacetylase 3 (Homo sapiens, UniProt O15379). In words: Inhibition of human recombinant HDAC3 expressed in baculovirus infected High5 insect cells using Ac-Lys-Tyr-Lys(e-acetyl)-AMC as substrate incubated for 24 hrs measured after 30 mins by microplate reader based spectrophotometric analysis. Also noted: species or system BTI-TN-5B1-4.
The next data set has as its target Histone deacetylase 1 (Homo sapiens, UniProt Q13547). In words: Inhibition of human recombinant HDAC1 expressed in baculovirus infected High5 insect cells using Ac-Lys-Tyr-Lys(e-acetyl)-AMC as substrate incubated for 24 hrs measured after 30 mins by microplate reader based spectrophotometric analysis. Also on record: species or system BTI-TN-5B1-4.
The nature of data set [7]: Drug uptake in human MDA-MB-231 cells assessed as decrease in fluorescence intensity at 25 uM for 1 to 24 hrs by fluorescence imaging analysis. Type of data set: ADME, cell-based. The note with it: mda-mb-231, 25 µM, time 1-24 hrs.
Data set [8] in a line: Chemical stability of compound in PBS buffer assessed as drug degradation at 37 degree C. Type of data set: physicochemical.

Sequence of Histone deacetylase 3 (O15379 whole entry): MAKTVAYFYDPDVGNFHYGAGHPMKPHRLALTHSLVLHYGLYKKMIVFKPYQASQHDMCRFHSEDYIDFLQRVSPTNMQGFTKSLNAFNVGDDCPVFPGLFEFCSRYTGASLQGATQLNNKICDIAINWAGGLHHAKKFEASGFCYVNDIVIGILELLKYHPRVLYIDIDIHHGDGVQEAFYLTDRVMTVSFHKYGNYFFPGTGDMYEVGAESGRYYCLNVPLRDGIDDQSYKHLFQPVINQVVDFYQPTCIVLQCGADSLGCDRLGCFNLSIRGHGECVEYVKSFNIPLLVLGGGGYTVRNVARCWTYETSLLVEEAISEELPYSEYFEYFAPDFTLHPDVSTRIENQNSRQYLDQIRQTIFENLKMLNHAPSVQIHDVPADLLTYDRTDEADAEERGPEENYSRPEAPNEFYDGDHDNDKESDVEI
Sequence of Histone deacetylase 1 (Q13547 whole entry): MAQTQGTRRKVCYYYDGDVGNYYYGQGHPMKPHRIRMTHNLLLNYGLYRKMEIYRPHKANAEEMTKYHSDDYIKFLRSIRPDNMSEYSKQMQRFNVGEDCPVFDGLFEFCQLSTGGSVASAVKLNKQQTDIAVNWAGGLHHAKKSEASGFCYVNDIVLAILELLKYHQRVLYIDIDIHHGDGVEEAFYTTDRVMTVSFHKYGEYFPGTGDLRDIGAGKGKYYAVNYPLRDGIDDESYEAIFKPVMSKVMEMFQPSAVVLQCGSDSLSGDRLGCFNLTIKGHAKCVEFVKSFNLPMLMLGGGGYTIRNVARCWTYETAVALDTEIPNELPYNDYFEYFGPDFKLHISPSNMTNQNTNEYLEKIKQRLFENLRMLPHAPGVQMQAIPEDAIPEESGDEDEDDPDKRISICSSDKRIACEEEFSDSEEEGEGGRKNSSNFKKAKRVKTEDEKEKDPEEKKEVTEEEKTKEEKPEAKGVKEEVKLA

With `CC[N+]1=C(/C=C/C2=C3Oc4cc(O)cc(OCCCCCCCC(=O)O)c4C=C3CCC2)C(C)(C)c2ccccc21.[I-]`, the IC50 in data set [1] is 13.8 µM; on Histone deacetylase 3 it was 11 µM; at Histone deacetylase 1 it was 9.69 µM. In addition, the Activity in [2] was 723 nm; in data set [4], “Not Active”; in data set [5] it was 707 nm. In addition, the outcome in the data set with HeLa and with MDA-MB-231 was inactive. In addition, the figures for the Drug uptake entry in [3], in [6] and in data set [7] were “Not Active”, “Not Active” and “Active”, respectively.

On to `CC[N+]1=C(/C=C/C2=C3Oc4cc(O)cc(OCCCCCCCC(=O)NO)c4C=C3CCC2)C(C)(C)c2ccccc21.[I-]`, for which the Stabilty entry in [8] is given as “Stable”. In addition, the IC50 in data set [1] came out at 0.19 µM; in the data set with HeLa, 5.91 µM; in the data set on MDA-MB-231 (MDA-MB-231, 72 h) it was 9.2 µM; at Histone deacetylase 3, 0.57 µM; on Histone deacetylase 1 it was 0.36 µM. Moreover, the Activity is recorded as 723 nm in [2], “Not Active” in [4] and 707 nm in [5]. For the same compound, the Drug uptake result in data set [3], in data set [6] and in [7] was “Active” each time.
